For eight compounds, inhibition and IC50 results are on record in patent US20260234157A1, “COMPOUND AND METHOD FOR TARGETED DEGRADATION OF ANDROGEN RECEPTOR” (Gan & Lee Pharmaceuticals Co., Ltd., priority 2023, published 2026).

Where a chain is given by its changes, count along the chain named.

For the first assay, the target named is T1, AR protein (Homo sapiens, UniProt P10275, T878A).
T1 construct: degradation activity of the compounds disclosed in the present disclosure on AR protein in LNCaP cells; host or cells: LNCaP FGC
T1 sequence (P10275 1-920 T878A): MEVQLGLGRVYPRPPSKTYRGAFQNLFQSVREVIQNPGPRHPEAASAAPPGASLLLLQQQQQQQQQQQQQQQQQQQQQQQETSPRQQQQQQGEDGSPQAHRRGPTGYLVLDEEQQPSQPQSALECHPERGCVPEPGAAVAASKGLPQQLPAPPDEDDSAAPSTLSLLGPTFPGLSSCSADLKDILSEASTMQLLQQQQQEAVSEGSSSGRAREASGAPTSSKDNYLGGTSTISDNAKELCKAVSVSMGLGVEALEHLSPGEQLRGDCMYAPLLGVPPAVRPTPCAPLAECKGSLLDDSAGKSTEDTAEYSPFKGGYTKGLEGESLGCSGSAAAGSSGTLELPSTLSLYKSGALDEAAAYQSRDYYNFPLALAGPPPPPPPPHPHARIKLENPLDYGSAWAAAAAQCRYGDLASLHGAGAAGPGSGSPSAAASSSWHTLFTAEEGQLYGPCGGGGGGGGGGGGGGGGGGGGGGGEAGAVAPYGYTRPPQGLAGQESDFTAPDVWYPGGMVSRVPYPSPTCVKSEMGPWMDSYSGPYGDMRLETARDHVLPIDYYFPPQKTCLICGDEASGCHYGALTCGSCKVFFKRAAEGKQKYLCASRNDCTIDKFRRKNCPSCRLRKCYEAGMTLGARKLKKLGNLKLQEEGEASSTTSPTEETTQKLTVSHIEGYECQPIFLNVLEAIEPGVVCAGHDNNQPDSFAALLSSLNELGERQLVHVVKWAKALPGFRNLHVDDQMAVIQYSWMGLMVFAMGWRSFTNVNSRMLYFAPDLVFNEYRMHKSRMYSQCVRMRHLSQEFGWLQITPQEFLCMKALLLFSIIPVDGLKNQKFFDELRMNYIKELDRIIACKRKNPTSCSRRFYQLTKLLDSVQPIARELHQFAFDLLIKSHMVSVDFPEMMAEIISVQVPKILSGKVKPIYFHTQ
As to the kind of experiment: Degradation of AR protein in LNCaP cells (Western blot). The assay is classed as cell-based. Conditions: LNCaP cells, compound 10 nM, 8 hours, Western blot grayscale, GAPDH internal reference; read-out: Degradation rates of the AR protein in LNCaP cells, 10 nM (%). As for the experimental part: The degradation activity of the compounds disclosed in the present disclosure on AR protein in LNCaP cells (cell source: ATCC)
(§1) Corresponding solvent controls were also set and cultured for 8 hours. After 8 hours of cultivation, the culture medium was removed and the cells were washed with PBS. RIPA lysis buffer containing 1% Protease Inhibitor Cocktail was added, and the total protein extract was obtained by lysis and centrifugation. The protein concentration in the extract was detected by BCA method. Protein electrophoresis was performed using SDS-PAGE, followed by transfer of the protein onto a PVDF (Millipore Sigma catalog No. PSRP010R5) membrane at 100V constant voltage for 60 minutes. The PVDF membrane was then placed in a 1×TBST solution with 5% milk and blocked at room temperature for 1 hour. […] The primary antibody solution was discarded and the PVDF membrane was washed three times with 1×TBST for 5 minutes/time. […] The secondary antibody solution was discarded and the PVDF membrane was washed three times with 1×TBST for 5 minutes/time. Western blot imaging was performed by using a dual color infrared laser imaging system (Licor catalog No. Odyssey CLX). Bands were analyzed in grayscale using Image Studio software. For each sample, GAPDH protein bands were detected as internal reference. The degradation rates of the AR protein for the compounds and the positive control sample were calculated based on grayscale of the protein bands.
A general note: In western blotting, separated proteins are transferred to a membrane and probed.
As for `N#Cc1ccc(O[C@H]2CC[C@H](NC(=O)c3cnc(N4CCC(F)(CN5CCC6(CC5)COc5c6ccc6c5CN(C5CCC(=O)NC5=O)C6=O)CC4)nc3)CC2)cc1Cl` (some centres unmarked) [Compound 158], the inhibition at 0.01 µM worked out at 43%.

`N#Cc1ccc(O[C@H]2CC[C@H](NC(=O)c3ccc(N4CC5(CCC(N6CCC7(CC6)COc6c7ccc7c6CN(C6CCC(=O)NC6=O)C7=O)CC5)C4)nn3)CC2)cc1Cl` (some centres unmarked) [Compound 168]: the inhibition at 0.01 µM came to 70%.

Consider `COc1cc(O[C@H]2CC[C@H](NC(=O)c3ccc(N4CCC(C)(CN5CCC6(CC5)COc5c6ccc6c5C(=O)N(C5CCC(=O)NC5=O)C6=O)CC4)nn3)CC2)ccc1C#N` (some centres unmarked) [Compound 180], for which the inhibition at 0.01 µM turned out to be 12%.

As for `CC1(CN2CCC3(CC2)COc2c3ccc3c2CN(C2CCC(=O)NC2=O)C3=O)CCN(c2ncc(C(=O)N[C@H]3CC[C@H](Oc4ccc(C#N)c(Cl)c4)CC3)cn2)CC1` (some centres unmarked) [Compound 193], the inhibition at 0.01 µM was 18%.

Consider `N#Cc1ccc(O[C@H]2CC[C@H](NC(=O)c3cnc(N4CCC5(CC4)COc4c5ccc5c4CN(C4CCC(=O)NC4=O)C5=O)nc3)CC2)cc1Cl` (some centres unmarked) [Compound 201], for which the inhibition at 0.01 µM was found to be 6%.

The assay is the same for the next values; noted with them: LNCaP cells, compound 100 nM, 8 hours, Western blot grayscale, GAPDH internal reference; read-out: Degradation rates of the AR protein in LNCaP cells, 100 nM (%).
For `N#Cc1ccc(O[C@H]2CC[C@H](NC(=O)c3cnc(N4CCC(F)(CN5CCC6(CC5)COc5c6ccc6c5CN(C5CCC(=O)NC5=O)C6=O)CC4)nc3)CC2)cc1Cl` (some centres unmarked) [Compound 158], the inhibition at 0.1 µM came out at 37%.

As for `N#Cc1ccc(O[C@H]2CC[C@H](NC(=O)c3ccc(N4CC5(CCC(N6CCC7(CC6)COc6c7ccc7c6CN(C6CCC(=O)NC6=O)C7=O)CC5)C4)nn3)CC2)cc1Cl` (some centres unmarked) [Compound 168], the inhibition at 0.1 µM amounted to 26%.

For the compound `COc1cc(O[C@H]2CC[C@H](NC(=O)c3ccc(N4CCC(C)(CN5CCC6(CC5)COc5c6ccc6c5C(=O)N(C5CCC(=O)NC5=O)C6=O)CC4)nn3)CC2)ccc1C#N` (some centres unmarked) [Compound 180], the inhibition at 0.1 µM turned out to be 53%.

On to `CC1(CN2CCC3(CC2)COc2c3ccc3c2CN(C2CCC(=O)NC2=O)C3=O)CCN(c2ncc(C(=O)N[C@H]3CC[C@H](Oc4ccc(C#N)c(Cl)c4)CC3)cn2)CC1` (some centres unmarked) [Compound 193], for which the inhibition at 0.1 µM is 31%.

For `N#Cc1ccc(O[C@H]2CC[C@H](NC(=O)c3cnc(N4CCC5(CC4)COc4c5ccc5c4CN(C4CCC(=O)NC4=O)C5=O)nc3)CC2)cc1Cl` (some centres unmarked) [Compound 201], the inhibition at 0.1 µM was found to be 32%.

Staying with this assay, now noted: LNCaP, 8 h, read-out: Degradation rates of the AR protein in LNCaP cells, 10 nM (%).
For the compound `N#Cc1ccc(O[C@H]2CC[C@H](NC(=O)c3ccc(N4CCC(N5CCC6(CC5)COc5c6ccc6c5CN(C5CCC(=O)NC5=O)C6=O)CC4)nn3)CC2)cc1Cl` (some centres unmarked) [Compound 169], the inhibition at 0.01 µM was determined as 75%.

As for `N#Cc1ccc(O[C@H]2CC[C@H](NC(=O)c3ccc(N4CC(N5CCC6(CC5)COc5c6ccc6c5CN(C5CCC(=O)NC5=O)C6=O)C4)nn3)CC2)cc1Cl` (some centres unmarked) [Compound 183], the inhibition at 0.01 µM is 40%.

Staying with this assay, now noted: LNCaP, 8 h, read-out: Degradation rates of the AR protein in LNCaP cells, 100 nM (%).
`N#Cc1ccc(O[C@H]2CC[C@H](NC(=O)c3ccc(N4CCC(N5CCC6(CC5)COc5c6ccc6c5CN(C5CCC(=O)NC5=O)C6=O)CC4)nn3)CC2)cc1Cl` (some centres unmarked) [Compound 169]: the inhibition at 0.1 µM is 53%.

Consider `N#Cc1ccc(O[C@H]2CC[C@H](NC(=O)c3ccc(N4CC(N5CCC6(CC5)COc5c6ccc6c5CN(C5CCC(=O)NC5=O)C6=O)C4)nn3)CC2)cc1Cl` (some centres unmarked) [Compound 183], for which the inhibition at 0.1 µM was 51%.

The test system of another assay is LNCaP FGC cells. Description: Inhibition of proliferation of LNCaP cells (WST-8). In kind it is cell-based. Conditions: Homo sapiens, LNCaP, 96 h, LNCaP FGC cells, 96 hours, WST-8 absorbance at 450 nm; read-out: IC50 for inhibiting the proliferation of LNCaP cells. As for the experimental part: The cells were cultured in a cell culture incubator with 5% CO2 at 37° C. overnight. […] On the sixth day, 96 well plates were taken out, and 20 μL of WST-8 (Beytime, C0040) reagent was added to each well.
A general note: Tetrazolium assays rely on reduction of a dye to a coloured formazan, in cell work by metabolically active cells.
With `CC1(C)C(=O)N(c2ccc(C#N)c(C(F)(F)F)c2)C(=S)N1c1ccc(C(=O)N2CC[C@@H](CN3CCC4(CCc5cc6c(cc5O4)C(=O)N(C4CCC(=O)NC4=O)C6=O)CC3)C2)c(F)c1` (some centres unmarked) [Compound 127], the IC50 was found to be 6.28 µM.

For the next assay, the target named is T2, AR protein (Homo sapiens, UniProt P10275).
T2 construct: degradation activity of the compounds disclosed in the present disclosure on AR protein in VCaP cells; host or cells: VCaP
T2 sequence (P10275 1-920): T1 sequence (P10275 1-920 T878A) with A878T
As to the kind of experiment: Degradation of AR protein in VCaP cells (Western blot). Conditions: compound at 10 nM, 8 hours, read-out: Degradation rate of the AR protein in VCaP cells, 10 nM (%). The assay is classed as cell-based. As for the experimental part:
The degradation activity of the compounds disclosed in the present disclosure on AR protein in VCaP cells (cell source: ATCC)
as §1
On to `N#Cc1ccc(O[C@H]2CC[C@H](NC(=O)c3cnc(N4CCC(F)(CN5CCC6(CC5)COc5c6ccc6c5CN(C5CCC(=O)NC5=O)C6=O)CC4)nc3)CC2)cc1Cl` (some centres unmarked) [Compound 158], for which the inhibition at 0.01 µM came to 62%.

As to `N#Cc1ccc(O[C@H]2CC[C@H](NC(=O)c3ccc(N4CC5(CCC(N6CCC7(CC6)COc6c7ccc7c6CN(C6CCC(=O)NC6=O)C7=O)CC5)C4)nn3)CC2)cc1Cl` (some centres unmarked) [Compound 168], the inhibition at 0.01 µM is 76%.

Take `N#Cc1ccc(O[C@H]2CC[C@H](NC(=O)c3ccc(N4CCC(N5CCC6(CC5)COc5c6ccc6c5CN(C5CCC(=O)NC5=O)C6=O)CC4)nn3)CC2)cc1Cl` (some centres unmarked) [Compound 169]: the inhibition at 0.01 µM is 79%.

For the compound `COc1cc(O[C@H]2CC[C@H](NC(=O)c3ccc(N4CCC(C)(CN5CCC6(CC5)COc5c6ccc6c5C(=O)N(C5CCC(=O)NC5=O)C6=O)CC4)nn3)CC2)ccc1C#N` (some centres unmarked) [Compound 180], the inhibition at 0.01 µM is 29%.

Regarding `N#Cc1ccc(O[C@H]2CC[C@H](NC(=O)c3ccc(N4CC(N5CCC6(CC5)COc5c6ccc6c5CN(C5CCC(=O)NC5=O)C6=O)C4)nn3)CC2)cc1Cl` (some centres unmarked) [Compound 183], the inhibition at 0.01 µM was found to be 75%.

Take `CC1(CN2CCC3(CC2)COc2c3ccc3c2CN(C2CCC(=O)NC2=O)C3=O)CCN(c2ncc(C(=O)N[C@H]3CC[C@H](Oc4ccc(C#N)c(Cl)c4)CC3)cn2)CC1` (some centres unmarked) [Compound 193]: the inhibition at 0.01 µM worked out at 21%.

With `N#Cc1ccc(O[C@H]2CC[C@H](NC(=O)c3cnc(N4CCC5(CC4)COc4c5ccc5c4CN(C4CCC(=O)NC4=O)C5=O)nc3)CC2)cc1Cl` (some centres unmarked) [Compound 201], the inhibition at 0.01 µM was -11%.

Still in this assay, the particulars now being: compound at 100 nM, 8 hours, read-out: Degradation rate of the AR protein in VCaP cells, 100 nM (%).
As to `N#Cc1ccc(O[C@H]2CC[C@H](NC(=O)c3cnc(N4CCC(F)(CN5CCC6(CC5)COc5c6ccc6c5CN(C5CCC(=O)NC5=O)C6=O)CC4)nc3)CC2)cc1Cl` (some centres unmarked) [Compound 158], the inhibition at 0.1 µM was determined as 81%.

Take `N#Cc1ccc(O[C@H]2CC[C@H](NC(=O)c3ccc(N4CC5(CCC(N6CCC7(CC6)COc6c7ccc7c6CN(C6CCC(=O)NC6=O)C7=O)CC5)C4)nn3)CC2)cc1Cl` (some centres unmarked) [Compound 168]: the inhibition at 0.1 µM amounted to 77%.

On to `N#Cc1ccc(O[C@H]2CC[C@H](NC(=O)c3ccc(N4CCC(N5CCC6(CC5)COc5c6ccc6c5CN(C5CCC(=O)NC5=O)C6=O)CC4)nn3)CC2)cc1Cl` (some centres unmarked) [Compound 169], for which the inhibition at 0.1 µM turned out to be 82%.

As to `COc1cc(O[C@H]2CC[C@H](NC(=O)c3ccc(N4CCC(C)(CN5CCC6(CC5)COc5c6ccc6c5C(=O)N(C5CCC(=O)NC5=O)C6=O)CC4)nn3)CC2)ccc1C#N` (some centres unmarked) [Compound 180], the inhibition at 0.1 µM came to 73%.

Take `N#Cc1ccc(O[C@H]2CC[C@H](NC(=O)c3ccc(N4CC(N5CCC6(CC5)COc5c6ccc6c5CN(C5CCC(=O)NC5=O)C6=O)C4)nn3)CC2)cc1Cl` (some centres unmarked) [Compound 183]: the inhibition at 0.1 µM came out at 84%.

Consider `CC1(CN2CCC3(CC2)COc2c3ccc3c2CN(C2CCC(=O)NC2=O)C3=O)CCN(c2ncc(C(=O)N[C@H]3CC[C@H](Oc4ccc(C#N)c(Cl)c4)CC3)cn2)CC1` (some centres unmarked) [Compound 193], for which the inhibition at 0.1 µM worked out at 78%.

Consider `N#Cc1ccc(O[C@H]2CC[C@H](NC(=O)c3cnc(N4CCC5(CC4)COc4c5ccc5c4CN(C4CCC(=O)NC4=O)C5=O)nc3)CC2)cc1Cl` (some centres unmarked) [Compound 201], for which the inhibition at 0.1 µM was 32%.
